From patent US20250154169A1, “COMPOUNDS AND METHODS FOR MODULATING SPLICING” (REMIX THERAPEUTICS INC., priority 2021, published 2025)
Where a name gives a salt, the structure may show the parent alone. Read-outs that look alike come from different tables or passages of the source.

Tests used:
MYB mRNA = assay: Splicing RT-qPCR assay, MYB canonical (CJ) and alternative (AJ) junction mRNA; type: cell-based, human; settings: Homo sapiens; for AC50: read-out: MYB AJ (AC50, increase in alternative junction mRNA)
Method in brief: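 A673 or K562 cells were treated 24 h at 37 °C with an 11-point 3-fold compound dilution series (top 10 uM, DMSO ≤0.25%). Lysates went to one-step RT-qPCR measuring canonical (CJ) and alternative-exon (AJ) junction transcripts, normalized to GAPDH, GUSB or PPIA.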

K562 cells = assay: Cell Titer Glo 2.0 cell viability assay, K562; type: cell-based; settings: Homo sapiens, 72 hours incubation
Experimental: Compounds described herein were screened for toxicity in K562 (human chronic myelogenous leukemia) and SH-SY5Y (human neuroblastoma) cells using a Cell Titer Glo 2.0 assay.
• Promega CellTiter-Glo® 2.0 Cell Viability Assay (cat #G9241) • Corning 384-well TC-treated microplates (cat #3570)
Cells were plated at 500 cells/well (K562 cells) in 45 μL of IMDM supplemented with 10% FBS in a 384-well opaque plate. Wells containing only medium were used as a blank control. Test compounds (e.g., compounds of Formula (I) or (II)) were first serially diluted in DMSO then diluted 1:100 with EIDM+10% FBS. The final concentration of DMSO was 0.1% in each well. The cells were incubated for 72 hours at 37° C. and 5% CO2 before assaying with Cell Titer Glo 2.0 reagent.

Target C = assay: Protein abundance, HiBit-assay system (Promega), Target C; type: cell-based, human; settings: Table 6; HiBiT-modified K562 cells, 24 hours
Experimental: Compounds described herein were used to screen for effects on quantitative protein abundance using a HiBit assay system (Promega). Quantitative protein abundance was determined by measuring the protein levels of HiBit-tagged protein targets expressed in cell culture via luminescence using the Nano-Glo HiBiT Lytic Detection System, which uses a split complementation assay format to reconstitute NanoBiT enzyme to generate a luminescent signal. A protein abundance assay was developed such that endogenous protein targets could be modified with the HiBiT peptide tag and their abundance could be assessed after compound treatment. Briefly, K562 cell lines containing a HiBiT-modification were treated with various compounds described herein (e.g., compounds of Formulas (I) or (II)). After treatment for 24 hours, the protein abundance of a specific target was determined by measuring luminescence.
Cells were maintained in EIDM with 10% FBS. Before the assay, cells were diluted with […] growth media (EIDM+1% FBS media) and were seeded in a 384-well plate at a density of 10000 cells/well (for each cell line listed in Table 5). Each compound was prepared as a 10-point 3-fold serial dilution in DMSO with the top dose at a final concentration of 10 μM in the well. Unmodified K562 cells were added at the previously specified density with DMSO to serve as an assay baseline and positive control (PC) and DMSO only with the respective modified cell lines was added to the negative control (NC) columns. Final DMSO concentration was kept at or below 0.25%. Treated cell plates were placed in an incubator at 37° C. with 5% CO2 for 24 hours. After 24 hours, 25 μL of Complete HiBit Lytic reagent was added to each well at room temperature (e.g. one plate requiring 10 mL Lytic Buffer, 100 μL LgBiT Protein, 200 μL Lytic Substrate), shaken for 5 minutes at 600 RPM, then left to sit for 10 minutes for signal to stabilize before reading on a Spark Cyto plate reader (Tecan) with a 500 ms measurement time.
To determine compound effects on protein abundance of each target in Table 6, the percent response for each respective cell line was calculated at each compound concentration as follows:
For the normalized response at each concentration, a four-parameter logistical regression was fit to the data and the response was interpolated at the 50% value to determine a concentration for protein abundance at […] the untreated control.

[1] = Tables 4A/4B, canonical junction qPCR panel, read-out: MYB (IC50, decrease in CJ mRNA, gene panel)
[2] = 24 h, A673 or K562 cells, 24 hours compound treatment, RT-qPCR
[3] = 24 h, A673 or K562 cells, 24 hours compound treatment, RT-qPCR, read-out: MYB CJ (IC50, decrease in canonical junction mRNA)

Row | Compound | IC50 (MYB mRNA; [1]) [nM] | GI50 (K562 cells) [nM] | IC50 (Target C) [nM] | AC50 (MYB mRNA; [2]) [nM] | IC50 (MYB mRNA; [3]) [nM]
1 | Cc1cn2nc(NC(=O)c3ccc(C4CCNCC4)c4cc(C)oc34)cc(C)c2n1 [Compound 118] | 100 to 1000 | 100 to 1000 | 1000 to 10000 | – | –
2 | Cc1cn2nc(NC(=O)c3ccc(C4CCNCC4)c4ccoc34)cc(C)c2n1 [Compound 119] | 1000 to 10000 | 1000 to 10000 | > 10000 | 1000 to 10000 | 1000 to 10000
3 | Cc1cn2cc(NC(=O)c3ccc(N4CCNCC4)c4nc(C)oc34)cc(F)c2n1 [Compound 140] | 1000 to 10000 | 1000 to 10000 | 1000 to 10000 | – | –
4 | Cc1cn2cc(NC(=O)c3ccc(N4CCNCC4)c4oc(C)nc34)cc(F)c2n1 [Compound 141] | < 100 | 100 to 1000 | 1000 to 10000 | < 100 | < 100
5 | Cc1cn2cc(NC(=O)c3ccc(N4CCNCC4)c4cc(C)oc34)cc(F)c2n1 [Compound 142] | 100 to 1000 | 100 to 1000 | 1000 to 10000 | 100 to 1000 | 100 to 1000
6 | Cc1cn2cc(NC(=O)c3ccc(N4CCNCC4)c4cn(C)nc34)cc(F)c2n1 [Compound 143, N-{8-fluoro-2-methylimidazo[1,2-a]pyridin-6-yl}-2-methyl-4-(piperazin-1-yl) indazole-7-carboxamide] | < 100 | 100 to 1000 | < 100 | – | –
7 | Cc1cn2cc(NC(=O)c3ccc(C4CCNCC4)c4cc(C)oc34)cc(F)c2n1 [Compound 145] | 100 to 1000 | – | 1000 to 10000 | 100 to 1000 | 100 to 1000
8 | Cc1cn2nc(NC(=O)c3ccc(N4CCNCC4)c4cc(C)oc34)cc(C)c2n1 [Compound 148] | 1000 to 10000 | 1000 to 10000 | 1000 to 10000 | 1000 to 10000 | 1000 to 10000
9 | Cc1cn2cc(NC(=O)c3ccc(C4CCNCC4)c4ccoc34)cc(F)c2n1 [Compound 149] | 100 to 1000 | 100 to 1000 | 1000 to 10000 | 100 to 1000 | 100 to 1000
10 | Cc1cn2cc(NC(=O)c3ccc(N4CCN(C)CC4)c4cc(C)oc34)cc(F)c2n1 [Compound 189] | 100 to 1000 | 100 to 1000 | 1000 to 10000 | 100 to 1000 | 100 to 1000
11 | Cc1cn2cc(NC(=O)c3ccc(N4CCNC(C)C4)c4cc(C)oc34)cc(F)c2n1 (stereo not shown) [Compound 190] | < 100 | 100 to 1000 | 1000 to 10000 | < 100 | < 100
12 | Cc1cn2cc(NC(=O)c3ccc(N4CCN(C)C(C)C4)c4cc(C)oc34)cc(F)c2n1 (stereo not shown) [Compound 191] | 100 to 1000 | 100 to 1000 | 1000 to 10000 | 100 to 1000 | 100 to 1000
13 | CCC1CN(c2ccc(C(=O)Nc3cc(F)c4nc(C)cn4c3)c3oc(C)cc23)CCN1 (stereo not shown) [Compound 192] | 100 to 1000 | 100 to 1000 | 1000 to 10000 | 100 to 1000 | 100 to 1000
14 | Cc1cn2cc(NC(=O)c3ccc(N4CCNC(C)(C)C4)c4cc(C)oc34)cc(F)c2n1 [Compound 193] | 100 to 1000 | 100 to 1000 | > 10000 | 100 to 1000 | 100 to 1000
15 | Cc1cn2cc(NC(=O)c3ccc(N4CCNC5(CC5)C4)c4cc(C)oc34)cc(F)c2n1 [Compound 194] | 100 to 1000 | 100 to 1000 | > 10000 | – | –
16 | Cc1cn2cc(NC(=O)c3ccc(N4CC(C)(C)NC(C)(C)C4)c4cc(C)oc34)cc(F)c2n1 [Compound 195] | 100 to 1000 | 100 to 1000 | 1000 to 10000 | 1000 to 10000 | 100 to 1000
17 | CCNC1CCN(c2ccc(C(=O)Nc3cc(F)c4nc(C)cn4c3)c3oc(C)cc23)CC1 [Compound 196] | 100 to 1000 | < 100 | 1000 to 10000 | – | –
18 | Cc1cn2cc(NC(=O)c3ccc(N4CCC(NC(C)(C)C)CC4)c4cc(C)oc34)cc(F)c2n1 [Compound 197] | 1000 to 10000 | 100 to 1000 | > 10000 | 1000 to 10000 | 1000 to 10000
19 | CC1=CC2C(N3CCC(N(C)C)CC3)=CC=C(C(=O)Nc3cc(F)c4nc(C)cn4c3)C2O1 (stereo not shown) [Compound 198] | < 100 | < 100 | > 10000 | – | –
20 | Cc1cn2cc(NC(=O)c3ccc(N4CCN5CCCC5C4)c4cc(C)oc34)cc(F)c2n1 (stereo not shown) [Compound 199] | 100 to 1000 | 100 to 1000 | > 10000 | 100 to 1000 | 100 to 1000
21 | Cc1cn2cc(NC(=O)c3ccc(C4CCNCC4)c4cn(C)nc34)cc(F)c2n1 [Compound 208] | < 100 | 100 to 1000 | 100 to 1000 | – | –
22 | Cc1cc2c(N3CCNCC3)ccc(C(=O)Nc3cc(F)c4cn(C)nc4c3)c2o1 [Compound 217] | > 10000 | 100 to 1000 | > 10000 | > 10000 | > 10000
23 | CCn1cc2c(N3CC[C@@H](NC)C3)ccc(C(=O)Nc3cc(Cl)c4nc(C)cn4c3)c2n1 [Compound 556, N-{8-chloro-2-methylimidazo[1,2-a]pyridin-6-yl}-2-ethyl-4-[(3R)-3-(methylamino)pyrrolidin-1-yl]indazole-7-carboxamide] | – | 100 to 1000 | 1000 to 10000 | > 10000 | 1000 to 10000
24 | CCn1cc2c(N3CCC(N)(CC)CC3)cc(F)c(C(=O)Nc3cc(F)c4nc(C)cn4c3)c2n1 [Compound 557, 4-(4-amino-4-ethylpiperidin-1-yl)-2-ethyl-6-fluoro-N-{8-fluoro-2-methylimidazo[1,2-a]pyridin-6-yl}indazole-7-carboxamide] | – | < 100 | 100 to 1000 | < 100 | < 100
25 | CCn1cc2c(N3CCC(N[C@H]4C[C@@H](O)C4)CC3)ccc(C(=O)Nc3cc(F)c4nc(C)cn4c3)c2n1 [Compound 559, 2-ethyl-N-{8-fluoro-2-methylimidazo[1,2-a]pyridin-6-yl}-4-(4-{[(1s,3s)-3-hydroxycyclobutyl]amino}piperidin-1-yl) indazole-7-carboxamide] | – | < 100 | 100 to 1000 | < 100 | < 100
26 | CCn1cc2c(N3CCC(N[C@H]4C[C@H](O)C4)CC3)ccc(C(=O)Nc3cc(F)c4nc(C)cn4c3)c2n1 [Compound 560, 2-ethyl-N-{8-fluoro-2-methylimidazo[1,2-a]pyridin-6-yl}-4-(4-{[(1r,3r)-3-hydroxycyclobutyl]amino}piperidin-1-yl) indazole-7-carboxamide] | – | < 100 | 1000 to 10000 | 100 to 1000 | 100 to 1000
27 | Cc1cn2cc(NC(=O)c3ccc(N4CC[C@@H](N5CCNCC5)C4)c4cn(C)nc34)cc(F)c2n1 [Compound 562, N-{8-fluoro-2-methylimidazo[1,2-a]pyridin-6-yl}-2-methyl-4-[(3R)-3-(piperazin-1-yl)pyrrolidin-1-yl]indazole-7-carboxamide hydrochloride] | – | 1000 to 10000 | > 10000 | 1000 to 10000 | 1000 to 10000
